What was measured:
[1] = system: HCT116 cells; assay: Intracellular ROS generation (cellrox reagent); assay type: cell-based
Experimental: To examine intracellular ROS generation by PpIX and PpIX-TF conjugate (TF01), HCT116 cells were seeded in 24-well, glass-bottomed plate and incubated with cellrox reagent (Thermo Fisher Scientific). After 30 min, the cells were washed three times by PBS and treated with PpIX or PpIX-TF conjugate (TF01). After 24 h of incubation, the cells were washed twice with PBS and then exposed to a 10 mW/cm^2 using a 635-nm laser source for 30 min. After irradiation, the fluorescence intensity of cells was measured by a microplate reader with excitation/emission at 485/520 nm. The values are expressed as fluorescence intensity ratio to control.

[2] = Fluorescence emission spectroscopy; assay type: physicochemical
Source text: A BMG fluostar spectrofluorophotometer was used to record fluorescent emissions of PpIX or PpIX-TF conjugate (referred to herein as TF01) suspended in aqueous buffer. A UV-vis spectrophotometer was used to record the absorbance spectra of PpIX and TF.

[3] = system: human hepatoma SK-HEP 1 xenograft; assay: In vivo PDT efficacy; settings: 400 mg/kg intravenously, followed by laser application (230 mW/cm^2, 260 J/cm^2, 635-nm); nude mice
Experimental: To test the in vivo PDT efficacy of PpIX-TF conjugate, nude mice bearing human hepatoma SK-HEP 1 xenograft were intravenously treated with PBS, 200 mg/kg or 400 mg/kg PpIX-TF conjugate (TF01) respectively (n=3-4 per group), followed by the laser application (at a light intensity 230 mW/cm^2, 260 J/cm^2, using a 635-nm laser source). Visible tumors were measured using two orthogonal measurements L and W (perpendicular to L), the volumes were calculated using the formula V=LW2/2 and recorded.

[4] = system: colorectal carcinoma cell line HCT116; assay: Cell uptake and imaging (fluorescence microscopy); assay type: cell-based
Experimental: Cancer cells were used to detect and compare cellular uptake of PpIX and PpIX-TF conjugate (referred to herein as TF01) in vitro. The cells were cultured in medium supplemented with 10% fetal bovine serum at 37° C. and 5% CO2. After incubating cells with PpIX-TF conjugate (TF01), images were viewed by confocal microscopy.
FIG. 9 depicts the fluorescence microscopic analysis of cellular uptake of recombinant TF in a colorectal carcinoma cell line HCT116.

[5] = Solubility and dispersibility in aqueous buffer; assay type: physicochemical; settings: compared to PpIX in aqueous Tris-HCl buffer, 20 mM, pH 8.5
Experimental: Improvement in solubility and dispersibility of the PpIX-TF conjugate was compared to PpIX in aqueous Tris-HCl buffer, 20 mM, pH 8.5 (FIG. 6).

[6] = Singlet oxygen / ROS generation by RNO bleaching; assay type: physicochemical; settings: relative to positive control methylene blue; RNO bleaching near 440 nm
Experimental: To determine singlet oxygen generation, singlet oxygen detection method was applied to a 3 ml aqueous solution containing the singlet oxygen generator, 50 µM of RNO and 8 mM of imidazole. The detection for absorption intensity of RNO near 440 nm was monitored to reflect the production of ROS by a UV-vis spectrophotometer after time intervals of laser exposure.

[7] = system: liver cancer cell line SK-Hep-1; assay: Cellular localization with MitoTracker, LysoTracker and ER-Tracker; assay type: cell-based
Experimental: The Mitotracker, lysotracker and ER-tracker (Thermo Fisher Scientific) were used to label mitochondria, lysosome and endoplasmic reticulum (ER) respectively. Two measures of correlation, the Pearson correlation coefficient (PCC) and the Mander's overlap coefficient (MOC) were calculated as depicted in the table below.

[8] = Cell phototoxicity assay under different dosages of 635-nm laser excitation (FIG. 16); assay type: cell-based; settings: when laser dosage were increased (635-nm laser, 3 J/cm^2 to 18 J/cm^2)
Experimental: (§1) To determine cell viability under dark conditions, cells (1×10^4 cells/well) were seeded onto 96-well plates and incubated for 24 h at 37° C. After cell stabilization, the culture medium was replaced with 100 μl of culture medium containing free PpIX or PpIX-TF conjugate (referred to herein as TF01), followed by incubation for 24 h. The cells were then washed twice with serum-free medium and cell viability was evaluated by MTT assay after 48 h. To determine the in vitro phototoxicity after laser irradiation, cells (1×10^4 cells/well) were seeded onto 96-well plates and incubated for 24 h at 37° C. The cells were then treated with free PpIX or a PpIX-TF conjugate (TF01). After 24 h incubation, the cells were washed twice with serum-free medium and irradiated at a light intensity of 150 mW/cm^2 using 450 nm or 627 nm LED light source for 30 min or 10 mW/cm^2 using a 635-nm laser source for 5-30 min (3 J/cm^2 to 18 J/cm^2). The cell viability of irradiated cells was evaluated by MTT assay after 24 h of incubation.
When laser dosage were increased, the corresponding IC50 values of PpIX-TF conjugate (TF01) were decreased.

[9] = system: HepG2; assay: Cell phototoxicity assay (MTT); assay type: cell-based; settings: concentration greater than about 25 μg/ml
Experimental: as §1
(§2) For each cancer cell line, measurements were performed in dark and in the presence of 450 nm blue laser light or 627 nm red light.

[10] = system: HCT 116; assay: Cell phototoxicity assay (MTT); assay type: cell-based; settings: concentration greater than about 25 μg/ml
Experimental: as §1, §2

[11] = system: SK-Hep-1 cell; assay: Soft agar colony-formation assay; assay type: cell-based; settings: 10 ug/ml, 3 J/cm^2, 635-nm laser source
Experimental: To estimate the anchorage-independent growth ability of cells treated by PpIX-TF conjugate (referred to herein as TF01), 3×10^4 cells of SK-Hep-1 cell were seeded in 35 mm dish and incubated for 24 h at 37° C. The cells were then treated with a PpIX-TF conjugate (TF01) or medium control. After 24 h incubation, the cells were washed twice with serum-free medium and irradiated at a light intensity of 10 mW/cm^2 using a 635-nm laser source for 5 min. Then, 5000 cells were suspended in 0.3% noble agar and cells were allowed to grow for another 2 weeks. Colonies were stained with 0.02% Giemsa Stain Solution, and documented by scanning.

OO [H2O2, reference compound]
intracellular ROS generation ([1]; 100 uM, positive control, HCT116): increase

Batch 1: exemplary batch of PpIX-TF conjugate (TF01), molar ratio of PpIX to TF protein 0.690
emission properties ([2]; 5 mg/ml (approximately 53 μM PpIX) in Tris-HCl buffer 20 mM, pH 8.5, versus control 60 μM PpIX with 5% DMSO): greater

TF01: conjugate of PpIX and recombinant TF (globin 2αβ2 tetramer); PpIX non-covalently associated with the protein
tumor volume [3]: tumor regression
cellular uptake / distribution of fluorescent signals [4]: widely distributed in the cytoplasm
solubility and dispersibility [5]: Improvement
intracellular ROS generation ([1]; 50 um/ml (batch 2), approximately 0.71 uM PpIX, 635-nm laser 10 mW/cm^2 30 min, versus control PpIX 0.75 uM): greatly enhance
quantum yield of ROS [6]: almost double that of methylene blue
Mander's overlap coefficient (MOC) ([7]; Endoplasmic reticulum): 0.6908
Pearson correlation coefficient (PCC) ([7]; Endoplasmic reticulum): 0.6076
Mander's overlap coefficient (MOC) ([7]; Lysosome): 0.4866
Pearson correlation coefficient (PCC) ([7]; Lysosome): 0.4974
Mander's overlap coefficient (MOC) ([7]; Mitochondria): 0.4684
Pearson correlation coefficient (PCC) ([7]; Mitochondria): 0.4922
IC50 values under different dosages of 635-nm laser excitation [8]: decreased
survival rates of the cells ([9]; irradiation 450 nm blue light): markedly decrease
survival rates of the cells ([9]; irradiation 627 nm red light): markedly decrease
survival rates of the cells ([10]; irradiation 450 nm blue light): markedly decrease
survival rates of the cells ([10]; irradiation 627 nm red light): markedly decrease
pH dependence of the emission intensity ([2]; 50 mM Tris-HCl or potassium phosphate buffer, λmax=625 nm): wide pH range
cancer cell soft agar colony formation [11]: significantly inhibit
